# According to ChEMBL document CHEMBL4219250, “Kröhnke pyridines: Rapid and facile access to Mcl-1 inhibitors” (Bioorg Med Chem Lett, 2018):
# Active and inactive are the calls of the source. The calls are words filed in the database; no cut-off is given here.
# Target: T1, Induced myeloid leukemia cell differentiation protein Mcl-1 (Homo sapiens, UniProt Q07820)
# Assay: Binding affinity to 15N-labeled His6-MBP-tagged recombinant human MCl-1 (172 to 327 residues) expressed in HMS174 (DE3) cells by two-dimensional1H-15N HSQC NMR spectra method
# Assay type: cell-based
# T1 sequence (Q07820 whole entry, the tested form may be a part): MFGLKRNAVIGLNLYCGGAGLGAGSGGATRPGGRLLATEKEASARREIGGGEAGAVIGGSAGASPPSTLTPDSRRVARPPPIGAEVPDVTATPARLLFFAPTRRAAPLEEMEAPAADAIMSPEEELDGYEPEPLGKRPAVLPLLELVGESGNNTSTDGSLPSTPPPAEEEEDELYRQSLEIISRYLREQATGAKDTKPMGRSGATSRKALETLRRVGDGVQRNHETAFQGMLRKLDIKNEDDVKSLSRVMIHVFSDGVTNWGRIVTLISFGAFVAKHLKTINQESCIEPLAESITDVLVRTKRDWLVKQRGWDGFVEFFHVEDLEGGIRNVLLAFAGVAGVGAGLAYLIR
row,SMILES,Activity
1,O=C(O)c1cc(-c2ccc(Br)cc2)nc(-c2ccc(Oc3ccccc3)cc2)c1,Active

# Target: T1, Induced myeloid leukemia cell differentiation protein Mcl-1
# Assay: Displacement of TAMRA-Bak peptide from His6-MBP-tagged recombinant human MCl-1 (172 to 327 residues) expressed in HMS174 (DE3) cells by fluorescence polarization assay
row,SMILES,Ki [µM]
1,COc1ccc(-c2cc(-c3ccc(Br)cc3)cc(C(=O)O)n2)cc1,40
2,O=C(O)c1cc(-c2ccc(Br)cc2)cc(-c2ccc(Cl)cc2)n1,40
3,O=C(O)c1cc(-c2ccc(Br)cc2)nc(-c2ccc(Oc3ccccc3)cc2)c1,4.43
4,O=C(O)c1cc(-c2ccc(Oc3ccccc3)cc2)cc(-c2ccccc2Br)n1,10.3
5,O=C(O)c1cc(-c2ccc(Br)cc2)cc(-c2ccc3c(c2)OCO3)n1,> 100
6,COc1ccc(-c2cc(-c3ccc(Oc4ccccc4)cc3)cc(C(=O)O)n2)cc1,10.9
7,O=C(O)c1cc(-c2ccc(Oc3ccccc3)cc2)cc(-c2cccc(Br)c2)n1,8.47
8,O=C(O)c1cc(-c2ccc(Oc3ccccc3)cc2)cc(-c2ccc([N+](=O)[O-])cc2)n1,13.7
9,CC(C)Oc1ccc(-c2cc(C(=O)O)nc(-c3ccc(OCc4ccccc4)cc3)c2)cc1,9.77
10,O=C(O)c1cc(-c2ccc(Oc3ccccc3)cc2)cc(-c2ccc(Br)cc2)n1,7.44
11,O=C(O)c1cc(-c2ccc(OCc3ccccc3)cc2)cc(-c2ccc(OCc3ccccc3)cc2)n1,9.22
12,CC(C)Oc1ccc(-c2cc(C(=O)O)nc(-c3ccc(OC(C)C)cc3)c2)cc1,28.8
13,O=C(O)c1cc(-c2ccc(Br)cc2)cc(-c2ccc(OCc3ccccc3)cc2)n1,7.6
14,O=C(O)c1cc(-c2ccc(Oc3ccccc3)cc2)cc(-c2ccc3c(c2)OCO3)n1,38.2
15,O=C(O)c1cc(-c2ccc(Oc3ccccc3)cc2)cc(-c2ccc(OCc3ccccc3)cc2)n1,6.1
16,O=C(O)c1cc(-c2ccc(Br)cc2)cc(-c2ccc(Br)cc2)n1,40
17,O=C(O)c1cc(-c2ccc(Br)cc2)cc(-c2ccccc2)n1,100
18,CC(C)Oc1ccc(-c2cc(-c3ccc(Oc4ccccc4)cc3)cc(C(=O)O)n2)cc1,7.33
19,O=C(O)c1cc(-c2ccc(Oc3ccccc3)cc2)cc(-c2ccccc2)n1,9.24
20,CC(C)Oc1ccc(-c2cc(C(=O)O)nc(-c3ccc(OC(C)C)cc3OC(C)C)c2)cc1,19.7
